Drawing on ChEMBL document CHEMBL1140481, “Synthesis and identification of novel 11beta-aryl-4',5'-dihydrospiro[estra-4,9-diene-17beta,4'-oxazole] analogs with dissociated antiprogesterone activities” (Bioorg Med Chem Lett, 2007), this text covers IC50 and Ratio IC50 for 8 compounds.

The term pIC50 denotes −log10 of the IC50, conventionally taken in molar units.

pIC50: −log10 of the molar value. Where only a bound is given, the exact number is not on record here.

In one assay the target is T1, Progesterone receptor (Homo sapiens, UniProt P06401).
T1 sequence (P06401 whole entry): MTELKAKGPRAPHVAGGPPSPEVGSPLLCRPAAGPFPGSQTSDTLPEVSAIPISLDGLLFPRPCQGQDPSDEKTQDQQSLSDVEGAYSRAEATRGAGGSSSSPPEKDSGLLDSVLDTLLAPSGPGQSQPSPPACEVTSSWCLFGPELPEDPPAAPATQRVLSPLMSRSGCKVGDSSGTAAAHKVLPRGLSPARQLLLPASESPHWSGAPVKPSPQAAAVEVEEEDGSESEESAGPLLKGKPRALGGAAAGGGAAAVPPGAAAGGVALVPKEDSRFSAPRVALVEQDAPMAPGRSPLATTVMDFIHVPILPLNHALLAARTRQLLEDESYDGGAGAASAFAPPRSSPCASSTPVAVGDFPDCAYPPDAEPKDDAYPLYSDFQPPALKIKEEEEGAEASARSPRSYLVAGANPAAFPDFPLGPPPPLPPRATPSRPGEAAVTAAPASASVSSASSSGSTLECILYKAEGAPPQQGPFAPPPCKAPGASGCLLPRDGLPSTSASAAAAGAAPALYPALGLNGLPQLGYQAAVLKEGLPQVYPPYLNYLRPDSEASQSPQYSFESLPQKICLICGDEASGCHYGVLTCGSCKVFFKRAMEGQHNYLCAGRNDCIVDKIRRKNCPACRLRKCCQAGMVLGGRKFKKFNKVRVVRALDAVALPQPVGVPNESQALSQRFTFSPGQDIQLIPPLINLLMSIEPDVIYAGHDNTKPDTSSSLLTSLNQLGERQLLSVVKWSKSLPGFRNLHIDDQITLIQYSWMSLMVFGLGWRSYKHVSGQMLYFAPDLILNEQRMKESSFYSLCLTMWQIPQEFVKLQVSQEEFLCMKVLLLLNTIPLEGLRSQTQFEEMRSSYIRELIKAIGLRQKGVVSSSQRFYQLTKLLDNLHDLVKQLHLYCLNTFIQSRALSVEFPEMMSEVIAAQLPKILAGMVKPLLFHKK
Description: Antagonist activity at progesterone receptor expressed in human T47D cells assessed as inhibition of promegestone-induced alkaline phosphatase activity. The assay is classed as functional, cell-based.

A further assay addresses T2, Glucocorticoid receptor (Homo sapiens, UniProt P04150).
T2 sequence (P04150 whole entry): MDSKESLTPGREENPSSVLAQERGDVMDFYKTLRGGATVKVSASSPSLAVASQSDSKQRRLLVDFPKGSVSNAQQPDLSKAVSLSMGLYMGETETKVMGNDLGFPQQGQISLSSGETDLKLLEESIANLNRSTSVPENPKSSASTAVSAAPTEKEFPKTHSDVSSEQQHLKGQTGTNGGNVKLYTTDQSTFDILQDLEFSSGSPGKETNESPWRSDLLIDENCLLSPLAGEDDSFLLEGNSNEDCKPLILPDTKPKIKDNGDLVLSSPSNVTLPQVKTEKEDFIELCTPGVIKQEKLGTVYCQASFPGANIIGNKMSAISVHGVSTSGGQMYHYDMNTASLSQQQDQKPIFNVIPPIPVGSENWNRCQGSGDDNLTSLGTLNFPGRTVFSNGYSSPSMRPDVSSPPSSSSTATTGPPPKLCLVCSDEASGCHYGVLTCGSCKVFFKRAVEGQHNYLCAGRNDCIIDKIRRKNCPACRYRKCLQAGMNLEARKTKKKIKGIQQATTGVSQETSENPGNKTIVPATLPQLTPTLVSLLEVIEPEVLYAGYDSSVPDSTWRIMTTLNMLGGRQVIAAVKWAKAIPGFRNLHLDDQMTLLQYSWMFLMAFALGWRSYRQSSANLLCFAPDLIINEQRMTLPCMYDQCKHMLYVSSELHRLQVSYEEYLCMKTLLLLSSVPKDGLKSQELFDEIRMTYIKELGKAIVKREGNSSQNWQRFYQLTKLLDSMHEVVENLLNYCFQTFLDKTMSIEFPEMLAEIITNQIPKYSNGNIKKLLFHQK
The assay can be described thus: Antagonist activity at glucocorticoid receptor expressed in A549 cells assessed as inhibition of corticoid-induced gene transcription by luciferase reporter gene assay. The assay is classed as functional, cell-based. On the technique in general: A reporter such as luciferase makes a cellular process visible.

The species named for a further assay is Homo sapiens. Description: Ratio of IC50 for glucocorticoid receptor to IC50 for progesterone receptor.

For `C=C1OC(C)=N[C@]12CC[C@H]1[C@@H]3CCC4=CC(=O)CCC4=C3[C@@H](c3ccc(N(C)C)cc3)C[C@@]12C`, the pIC50 is 9.20 on Progesterone receptor and 7.09 at Glucocorticoid receptor. For the same compound, the Ratio IC50 in the assay filed under Homo sapiens was determined as 130.

For the compound `C=C1OC(CC)=N[C@]12CC[C@H]1[C@@H]3CCC4=CC(=O)CCC4=C3[C@@H](c3ccc(OC)c(F)c3)C[C@@]12C`, the pIC50 was 9.00 at Progesterone receptor and below 5.00 on Glucocorticoid receptor. Further, the Ratio IC50 in the assay filed under Homo sapiens is above 10000.

Turning to `C=C1OC(C)=N[C@]12CC[C@H]1[C@@H]3CCC4=CC(=O)CCC4=C3[C@@H](c3ccc(OC)c(F)c3)C[C@@]12C`, the negative logarithm of the IC50 (pIC50) on Progesterone receptor is 8.34; at Glucocorticoid receptor, 6.18. Besides, in the assay filed under Homo sapiens, the Ratio IC50 came out at 140.

Turning to `C=C1OC=N[C@]12CC[C@H]1[C@@H]3CCC4=CC(=O)CCC4=C3[C@@H](c3ccc(N(C)C)cc3)C[C@@]12C`, the negative-log IC50 (pIC50) is 7.74 at Progesterone receptor and 6.27 at Glucocorticoid receptor. For the same compound, in the assay listed under Homo sapiens, the Ratio IC50 worked out at 30.

With `C=C1OC(C)=N[C@]12CC[C@H]1[C@@H]3CCC4=CC(=O)CCC4=C3[C@@H](c3ccc(C(C)=O)cc3)C[C@@]12C`, the results for the pIC50 on Progesterone receptor and at Glucocorticoid receptor were 9.23 and 6.34, respectively. Further, the Ratio IC50 in the assay listed under Homo sapiens is 780.

For `C=C1OC(CC)=N[C@]12CC[C@H]1[C@@H]3CCC4=CC(=O)CCC4=C3[C@@H](c3ccc(N(C)C)cc3)C[C@@]12C`, the pIC50 is 9.01 on Progesterone receptor and 7.64 at Glucocorticoid receptor. In addition, the Ratio IC50 in the assay filed under Homo sapiens was found to be 24.

As to `C=C1OC(CC)=N[C@]12CC[C@H]1[C@@H]3CCC4=CC(=O)CCC4=C3[C@@H](c3ccc(C(C)=O)cc3)C[C@@]12C`, the pIC50 at Progesterone receptor was 9.47; at Glucocorticoid receptor it was 6.68. The Ratio IC50 in the assay listed under Homo sapiens came out at 620.

Regarding `C=C1OC=N[C@]12CC[C@H]1[C@@H]3CCC4=CC(=O)CCC4=C3[C@@H](c3ccc(C(C)=O)cc3)C[C@@]12C`, the negative-log IC50 (pIC50) on Progesterone receptor is 7.09; at Glucocorticoid receptor, 4.85. For the same compound, in the assay listed under Homo sapiens, the Ratio IC50 worked out at 171.
